Results on 6 molecules are retold here after publication PMC6700280, “Identification of Novel 3-Hydroxy-pyran-4-One Derivatives as Potent HIV-1 Integrase Inhibitors Using in silico Structure-Based Combinatorial Library Design Approach” (Frontiers in Chemistry, 2019).

Molecules are shown by their SMILES. Where two headings read alike, the source gives them in different places.

Data set [1] addresses T1, HIV-1 IN (Human immunodeficiency virus type 1 group M subtype B, UniProt P04585). Put plainly: Overall HIV-1 IN integration assay (ELISA). The class given is biochemical. A general note: An ELISA detects its analyte on a solid surface through an enzyme-linked reagent.
The subject of data set [2] is HIV-1. Put plainly: MT-4/MTT anti-HIV assay (HIV-induced cytopathic effect). It counts as cell-based. The settings on record: Human immunodeficiency virus 1, MT4; MT-4 cells; read-out: HIV-1 activity inhibition EC50. As to the method:
The inhibitory effect of antiviral drugs on the HIV-induced cytopathic effect (CPE) in human lymphocyte MT-4 cell culture was determined by the MT-4/MTT-assay (Pauwels et al., [1988]). This assay is based on the reduction of the yellow colored 3-(4,5-dimethylthiazol-2-yl)-2,5-diphenyltetrazolium bromide (MTT) by mitochondrial dehydrogenase of metabolically active cells to a blue formazan derivative, which can be measured spectrophotometrically. The 50% cell culture infective dose of the HIV strains was determined by titration of the virus stock using MT-4 cells. For the drug susceptibility assays, MT-4 cells were infected with 100–300 50% cell culture infective doses of the HIV strains in the presence of 5-fold serial dilutions of the antiviral drugs. The concentration of the compound achieving 50% protection against the CPE of HIV, which is defined as the 50% effective concentration (EC50), was determined. In parallel, the concentration of the compound destroying 50% of the MT-4 cells, which is defined as the 50% cytotoxic concentration (CC50), was determined as well.

The subject of data set [3] is MT-4 cells. Put plainly: MT-4/MTT cytotoxicity assay. The class given is cell-based, human. Here is the method:
(§1) The inhibitory effect of antiviral drugs on the HIV-induced cytopathic effect (CPE) in human lymphocyte MT-4 cell culture was determined by the MT-4/MTT-assay (Pauwels et al., [1988]). […] The 50% cell culture infective dose of the HIV strains was determined by titration of the virus stock using MT-4 cells. For the drug susceptibility assays, MT-4 cells were infected with 100–300 50% cell culture infective doses of the HIV strains in the presence of 5-fold serial dilutions of the antiviral drugs. […] In parallel, the concentration of the compound destroying 50% of the MT-4 cells, which is defined as the 50% cytotoxic concentration (CC50), was determined as well.
Background: Formazan colour is commonly taken as a measure of viable cells.

A short description of data set [4]: MT-4/MTT cytotoxicity assay. The class given is cell-based, human. The settings on record: human, MT-4 cells; read-out: Cellular toxicity CC50. As to the method:
as §1

Data set [5] concerns the target T2, HIV-1 IN strand transfer activity (Human immunodeficiency virus type 1 group M subtype B, UniProt P04585). Put plainly: HIV-1 IN strand transfer assay (ELISA, pre-cleaved oligonucleotide substrate).
Method: The enzymatic integration reactions were carried out as previously described with minor modifications (Debyser et al., [2001]; Christ et al., [2011]). To determine the susceptibility of the HIV-1 IN enzyme to different compounds, an enzyme-linked immunosorbent assay (ELISA) adapted from Hwang et al. was used (Hwang et al., [2000]). The overall integration assay uses an oligonucleotide substrate for which one oligonucleotide (5′-[sequence]-3′) is labeled with biotin at the 3′ end and the other oligonucleotide (5′-[sequence]-3′) is labeled with digoxigenin at the 5′ end. For the strand transfer assay, a pre-cleaved oligonucleotide substrate (the second oligonucleotide lacks GT [underlined] at the 3′ end) was used. The IN enzyme was diluted in 750 mM NaCl, 10 mM Tris (pH: 7.6), 10% glycerol, and 1 mM β-mercaptoethanol. To perform the reaction, 4 μL of diluted IN (corresponding to a concentration of 1.6 μM) and 4 μL of annealed oligonucleotides (7 nM) were added in a final reaction volume of 40 μL containing 10 mM MgCl2, 5 mM dithiothreitol, 20 mM HEPES (pH 7.5), 5% polyethylene glycol, and 15% dimethyl sulfoxide. As such, the final concentration of IN in this assay was 160 nM. The reaction was carried out for 1 h at 37°C. Reaction products were denatured with 30 mM NaOH and detected by ELISA on avidin-coated plates.
The target of data set [6] is T1, HIV-1 IN. Set-up: method as in Sirous et al., 2019. The note with it: read-out: Overall HIV-1 IN activity inhibition IC50; previously reported lead; ref Sirous et al., 2019; cited from earlier work.
In data set [7] the target is T2, HIV-1 IN strand transfer activity. Set-up: method as in Sirous et al., 2019. The note with it: read-out: HIV-1 IN strand transfer activity inhibition IC50; previously reported lead; ref Sirous et al., 2019; cited from earlier work.
In data set [8] the test system is MT-4 cells. Set-up: method as in Sirous et al., 2019. The settings on record: previously reported lead, cited from earlier work; for CC50: ref Sirous et al., 2019, read-out: Cellular toxicity CC50; for TI (therapeutic index, CC50/EC50 ratio): ref Sirous et al., 2019.
The subject of data set [9] is HIV-1. Set-up: method as in Sirous et al., 2019. The settings on record: MT-4 cells; previously reported lead; ref Sirous et al., 2019; read-out: HIV-1 activity inhibition EC50; cited from earlier work.

The IC50 is the midpoint of a concentration-inhibition curve. The term EC50 denotes the concentration giving half of the maximal effect. The term CC50 denotes the concentration giving 50% cytotoxicity.

On to `Cc1cc(=O)c(O)c(C(=O)NCc2cc(F)cc(-c3ccccn3)c2)o1` [HPCAR-28, N-(3-Fluoro-5-(pyridin-2-yl)benzyl)-3-hydroxy-6-methyl-4-oxo-4H-pyran-2-carboxamide], for which the IC50 at HIV-1 IN [1] worked out at 65 ± 10 nM; in data set [5], 3.37 ± 0.38 µM. Moreover, the “improvement in anti-IN potency compared to HPb” value at HIV-1 IN [1] (vs HPb IC50 = 0.37 μM) turned out to be 6 fold. Further, in the data set with HIV-1 [2], the EC50 is 230 ± 180 nM. In the data set on MT-4 cells [3], the “TI (therapeutic index, CC50/EC50 ratio)” value is listed as >1,087. The CC50 in data set [4] is over 250 µM.
Take `Cc1nc(-c2cccc(CNC(=O)c3oc(C)cc(=O)c3O)c2)c[nH]1` [HPCAR-89, 3-Hydroxy-6-methyl-N-(3-(2-methyl-1H-imidazol-4-yl)benzyl)-4-oxo-4H-pyran-2 carboxamide]: the results for the IC50 (against HIV-1 IN [1]; in [5]) were 270 ± 100 nM and 4 ± 0.34 µM, respectively. Besides, in the data set with HIV-1 [2], the EC50 amounted to 2340 ± 460 nM. The “TI (therapeutic index, CC50/EC50 ratio)” value with MT-4 cells [3] was over 53.4. Besides, the CC50 in [4] was over 125 µM.
As to `Cc1cc(=O)c(O)c(C(=O)NCc2cccc(-n3cccc3)c2)o1` [HPCAR-142, N-(3-(1H-Pyrrol-1-yl)benzyl)-3-hydroxy-6-methyl-4-oxo-4H-pyran-2-carboxamide], the figures for the IC50 (on HIV-1 IN [1]; in [5]) were 1970 ± 1060 nM and 17.49 ± 0.13 µM, respectively. In addition, the EC50 with HIV-1 [2] is 4210 ± 520 nM. Moreover, the “TI (therapeutic index, CC50/EC50 ratio)” value in the data set on MT-4 cells [3] is recorded as over 20.3. The CC50 in data set [4] was over 85.4 µM.
On to `Cc1cc(=O)c(O)c(C(=O)NCc2ccc(F)cc2)o1` [HPb], for which the IC50 on HIV-1 IN [6] was 370 ± 170 nM. In data set [7], the IC50 is 1405 ± 10 nM. Further, in the data set on MT-4 cells [8], the half-maximal cytotoxic concentration (CC50) is over 250 µM and the “TI (therapeutic index, CC50/EC50 ratio)” value is over 145. In addition, the EC50 in the data set with HIV-1 [9] was 1720 ± 990 nM.
For the molecule `Cc1cc(=O)c(O)c(C(=O)NCc2ccc(Cl)cc2)o1` [HPd], at HIV-1 IN [6], the IC50 is 700 ± 310 nM. Also, the IC50 in data set [7] is 1540 ± 200 nM. For the same molecule, in the data set with MT-4 cells [8], the CC50 is 196 ± 4.4 µM and the “TI (therapeutic index, CC50/EC50 ratio)” value is 100.3. For the same molecule, the EC50 with HIV-1 [9] was 1950 ± 930 nM.
`Cc1nnc(C(=O)NC(C)(C)c2nc(C(=O)NCc3ccc(F)cc3)c(O)c(=O)n2C)o1` [RLT, Raltegravir, reference compound]: the 50% effective concentration (EC50) in the data set with HIV-1 [2] stood at 13 ± 8 nM. In addition, the CC50 in data set [4] is over 18.3 µM.
